From patent publication US12673946B2, “Pyrimidin-4(3H)-one derivatives as TRPV4 antagonists” (RaQualia Pharma Inc., priority 2020, dated 2026)
pIC50: −log10 of the molar value.

Target: T1, human TRPV4 (Homo sapiens, UniProt Q9HBA0)
T1 construct: host or cells: tetracycline-inducible Flp-In T-REx 293 cells
Test: Hypotonicity-induced Ca2+ influx (Fluo-4, FDSS)
Format: cell-based
Method in brief: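 Flp-In T-REx 293 cells with tetracycline-induced human TRPV4, loaded with Fluo-4 for 60 min at 25 °C. Compound added 5 min before hypotonic mannitol/CaCl2 solution. Ca2+ signal recorded for 4.5 min on FDSS.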

[1] = Flp-In T-REx 293 cells expressing human TRPV4, examples listed under heading 'Human IC50<50 nM'
[2] = Flp-In T-REx 293 cells stably expressing human TRPV4, compounds listed by potency bin (<10 nM Tables 96-1/96-2, <3 nM Table 97)

T1 sequence (Q9HBA0 whole entry): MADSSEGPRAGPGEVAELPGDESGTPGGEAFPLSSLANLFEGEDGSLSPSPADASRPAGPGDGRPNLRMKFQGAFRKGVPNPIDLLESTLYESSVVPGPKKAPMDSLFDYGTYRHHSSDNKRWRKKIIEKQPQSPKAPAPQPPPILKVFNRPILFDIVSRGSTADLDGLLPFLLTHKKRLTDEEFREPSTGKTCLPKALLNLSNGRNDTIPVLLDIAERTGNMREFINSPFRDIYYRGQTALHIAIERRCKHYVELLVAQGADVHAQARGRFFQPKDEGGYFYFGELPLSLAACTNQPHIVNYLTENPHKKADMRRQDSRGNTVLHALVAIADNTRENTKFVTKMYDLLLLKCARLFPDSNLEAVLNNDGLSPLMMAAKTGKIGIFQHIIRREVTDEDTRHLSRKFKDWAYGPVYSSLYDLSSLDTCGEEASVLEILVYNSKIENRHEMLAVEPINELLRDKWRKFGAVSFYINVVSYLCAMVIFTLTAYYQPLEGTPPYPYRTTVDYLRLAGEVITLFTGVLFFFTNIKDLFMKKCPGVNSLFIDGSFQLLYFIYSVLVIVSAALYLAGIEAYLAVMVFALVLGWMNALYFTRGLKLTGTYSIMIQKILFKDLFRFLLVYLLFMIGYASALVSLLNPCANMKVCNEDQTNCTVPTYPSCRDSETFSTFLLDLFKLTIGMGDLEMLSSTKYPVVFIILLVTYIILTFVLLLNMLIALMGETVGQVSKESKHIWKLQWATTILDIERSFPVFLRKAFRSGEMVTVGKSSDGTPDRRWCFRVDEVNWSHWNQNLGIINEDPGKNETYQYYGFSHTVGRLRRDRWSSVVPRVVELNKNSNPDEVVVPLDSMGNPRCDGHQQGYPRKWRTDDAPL

| SMILES | pIC50 [1] | pIC50 [2] |
| --- | --- | --- |
| CC1CCN(c2ccc(-c3cccc(C4(c5nc6c(c(=O)[nH]5)CN(C(=O)[C@H](O)c5cccc(C(F)(F)F)c5)CCC6)CC4)c3)cn2)CC1 [42-10] | > 7.30 | > 8.52 |
| O=C([C@H](O)c1cccc(C(F)(F)F)c1)N1CCc2nc(C3(c4cccc(F)c4)CC3)[nH]c(=O)c2C1 [3-73] | > 7.30 | – |
| O=C([C@H](O)c1cccc(-c2cc3ccccc3s2)c1)N1CCc2nc(C3(c4ccccc4)CC3)[nH]c(=O)c2C1 [44-95] | > 7.30 | > 8.52 |
| O=C([C@H](O)c1cccc(-c2cccc(OC(F)(F)F)c2)c1)N1CCc2nc(C3(c4ccccc4)CC3)[nH]c(=O)c2C1 [44-72] | > 7.30 | > 8.52 |
| O=C(Cc1cccc(OC(F)(F)F)c1)N1CCCc2nc(C3(c4cccc(Cl)c4)CC3)[nH]c(=O)c2C1 [17-112] | > 7.30 | – |
| O=C([C@H](O)c1cccc(C(F)(F)F)c1)N1CCCc2nc(C3(c4cccc(C5=CCN(S(=O)(=O)C6CCCCC6)CC5)c4)CC3)[nH]c(=O)c2C1 [42-76] | > 7.30 | > 8.00 |
| O=C(C(O)c1cccc(-c2cc(Cl)cc(Cl)c2)c1)N1CCc2nc(C3(c4ccccc4)CC3)[nH]c(=O)c2C1 (centres unmarked) [44-10] | > 7.30 | > 8.00 |
| O=C(Cc1ccccc1)N1CCC(c2cccc(C3(c4nc5c(c(=O)[nH]4)CN(C(=O)[C@H](O)c4cccc(C(F)(F)F)c4)CCC5)CC3)c2)CC1 [31-9] | > 7.30 | > 8.00 |
| CC(C(=O)N1CCCc2nc(C3(c4cccc(Cl)c4)CC3)[nH]c(=O)c2C1)c1cccc(C(F)(F)F)c1 (centres unmarked) [17-88] | > 7.30 | > 8.00 |
| CC(C)c1cccc(C(O)C(=O)N2CCc3nc(C4(c5cccc(F)c5)CC4)[nH]c(=O)c3C2)c1 (centres unmarked) [14-32] | > 7.30 | – |
| O=C(C(O)c1cccc(-c2cccc(F)c2)c1)N1CCCc2nc(C3(c4cccc(Cl)c4)CC3)[nH]c(=O)c2C1 (centres unmarked) [17-5] | > 7.30 | > 8.52 |
| O=C(C(O)c1cccc(-c2cnc3ccccc3c2)c1)N1CCc2nc(C3(c4ccccc4)CC3)[nH]c(=O)c2C1 (centres unmarked) [44-12] | > 7.30 | > 8.00 |
| O=C([C@H](O)c1cccc(C(F)(F)F)c1)N1CCCc2nc(C3(c4cccc(Cl)c4)CC3)[nH]c(=O)c2C1 [17-12] | > 7.30 | > 8.00 |
| N#Cc1cc(Cl)cc(-c2cccc([C@@H](O)C(=O)N3CCc4nc(C5(c6ccccc6)CC5)[nH]c(=O)c4C3)c2)c1 [44-110] | > 7.30 | > 8.52 |
| O=C(N1CCc2nc(C3(c4ccccc4)CC3)[nH]c(=O)c2C1)C(F)(F)c1cccc(C(F)(F)F)c1 [20-9] | > 7.30 | – |
| O=C(C(O)c1cccc(-c2ccnc(C(F)(F)F)c2)c1)N1CCc2nc(C3(c4ccccc4)CC3)[nH]c(=O)c2C1 (centres unmarked) [44-17] | > 7.30 | > 8.00 |
| C=C(C)c1cccc(C2(c3nc4c(c(=O)[nH]3)CN(C(=O)[C@H](O)c3cccc(C(F)(F)F)c3)CCC4)CC2)c1 [17-1] | > 7.30 | > 8.52 |

| SMILES | pIC50 [1] | pIC50 [2] |
| --- | --- | --- |
| COc1cc(-c2cccc(C3(c4nc5c(c(=O)[nH]4)CN(C(=O)[C@H](O)c4cccc(Cl)c4)CCC5)CC3)c2)ccn1 [40-14] | > 7.30 | > 8.52 |
| O=C([C@H](O)c1cccc(Cl)c1)N1CCCc2nc(C3(c4cccc(-c5cccnc5)c4)CC3)[nH]c(=O)c2C1 [40-3] | > 7.30 | > 8.00 |
| O=C([C@H](O)c1cccc(Cl)c1)N1CCCc2nc(C3(c4cccc(C5CCCC5)c4)CC3)[nH]c(=O)c2C1 [29-3] | > 7.30 | > 8.52 |
| O=C([C@H](O)c1cccc(C(F)(F)F)c1)N1CCCc2nc(C3(c4cccc(-c5cc(F)cc(F)c5)c4)CC3)[nH]c(=O)c2C1 [42-61] | > 7.30 | > 8.00 |
| O=C(C(O)c1cccc(C(F)(F)F)c1F)N1CCCc2nc(C3(c4cccc(F)c4)CC3)[nH]c(=O)c2C1 (centres unmarked) [17-10] | > 7.30 | > 8.00 |
| CC(C)(C)c1cccc(C(O)C(=O)N2CCCc3nc(C4(c5ccccc5)CC4)[nH]c(=O)c3C2)c1 (centres unmarked) [17-47] | > 7.30 | – |
| O=C(C(O)c1cccc(-c2cccc(OC(F)(F)F)c2)c1)N1CCCc2nc(C3(c4cccc(Cl)c4)CC3)[nH]c(=O)c2C1 (centres unmarked) [17-23] | > 7.30 | > 8.00 |
| COc1ccc(-c2cccc(C3(c4nc5c(c(=O)[nH]4)CN(C(=O)[C@H](O)c4cccc(C(F)(F)F)c4)CCC5)CC3)c2)cn1 [42-7] | > 7.30 | > 8.52 |
| Cc1cc(-c2cccc([C@@H](O)C(=O)N3CCc4nc(C5(c6ccccc6)CC5)[nH]c(=O)c4C3)c2)ccc1Cl [44-117] | > 7.30 | > 8.00 |
| O=C(c1ccccc1)N1CCC(c2cccc(C3(c4nc5c(c(=O)[nH]4)CN(C(=O)[C@H](O)c4cccc(C(F)(F)F)c4)CCC5)CC3)c2)CC1 [31-10] | > 7.30 | > 8.00 |
| O=C(N1CCCc2nc(C3(c4ccccc4)CC3)[nH]c(=O)c2C1)C(F)(F)c1cccc(Cl)c1 [20-7] | > 7.30 | > 8.00 |
| O=C(N1CCCc2nc(C3(c4ccccc4)CC3)[nH]c(=O)c2C1)C(F)(F)c1cccc(C(F)(F)F)c1 [20-1] | > 7.30 | > 8.52 |
| O=C([C@H](O)c1cccc(C(F)(F)F)c1)N1CCCc2nc(C3(c4cncc(Br)c4)CC3)[nH]c(=O)c2C1 [19-6] | > 7.30 | – |
| CC(C)c1csc(C2(c3nc4c(c(=O)[nH]3)CN(C(=O)C(O)c3cccc(C(F)(F)F)c3F)CCC4)CC2)c1 (centres unmarked) [18-16] | > 7.30 | > 8.00 |
| O=C([C@H](O)c1cccc(Cl)c1)N1CCc2nc(C3(c4cc(C5CCOCC5)cs4)CC3)[nH]c(=O)c2C1 [15-15] | > 7.30 | – |
| O=C([C@H](O)c1cccc(Cl)c1)N1CCCc2nc(C3(c4cccc(-c5ccc(F)cc5)c4)CC3)[nH]c(=O)c2C1 [40-9] | > 7.30 | > 8.52 |

The next lines start with the values.

| pIC50 [1] | pIC50 [2] | SMILES |
| --- | --- | --- |
| > 7.30 | > 8.00 | O=C(C(O)c1cccc(-c2cccc(C(F)(F)F)c2)c1)N1CCCc2nc(C3(c4ccccc4)CC3)[nH]c(=O)c2C1 (centres unmarked) [49-8] |
| > 7.30 | > 8.00 | O=C([C@H](O)c1cccc(-c2cccc(C(F)(F)F)c2)c1)N1CCCc2nc(C3(c4cccc(Oc5ccccc5)c4)CC3)[nH]c(=O)c2C1 [52-8] |
| > 7.30 | > 8.52 | O=C([C@H](O)c1cccc(-c2ccc(Cl)cc2)c1)N1CCCc2nc(C3(c4cccc(Cl)c4)CC3)[nH]c(=O)c2C1 [50-5] |
| > 7.30 | > 8.00 | CC(C)(C)c1cccc(-c2cccc([C@@H](O)C(=O)N3CCCc4c(nc(C5(c6ccccc6)CC5)[nH]c4=O)C3)c2)c1 [49-55] |
| > 7.30 | > 8.52 | O=C([C@H](O)c1cccc(-c2ccc(F)c(Cl)c2)c1)N1CCCc2nc(C3(c4ccccc4)CC3)[nH]c(=O)c2C1 [49-30] |
| > 7.30 | > 8.00 | O=C(C(O)c1cccc(-c2ccnc(C(F)(F)F)c2)c1)N1CCCc2nc(C3(c4ccccc4)CC3)[nH]c(=O)c2C1 (centres unmarked) [49-5] |
| > 7.30 | > 8.52 | O=C([C@H](O)c1cccc(-c2ccc(OC(F)(F)F)cc2)c1)N1CCCc2nc(C3(c4ccccc4)CC3)[nH]c(=O)c2C1 [49-33] |
| > 7.30 | > 8.00 | CC(C)c1cncc(C2(c3nc4c(c(=O)[nH]3)CN(C(=O)[C@H](O)c3cccc(-c5ccc(Cl)cc5)c3)CC4)CC2)c1 [47-4] |
| > 7.30 | > 8.52 | O=C([C@H](O)c1cccc(-c2cc(F)cc(Cl)c2)c1)N1CCCc2nc(C3(c4cccc(Cl)c4)CC3)[nH]c(=O)c2C1 [50-18] |
| > 7.30 | > 8.00 | O=C([C@H](O)c1cccc(-c2ccc(Cl)c(C(F)(F)F)c2)c1)N1CCCc2nc(C3(c4cccc(Cl)c4)CC3)[nH]c(=O)c2C1 [50-23] |
| > 7.30 | > 8.00 | CC(C)c1cncc(C2(c3nc4c(c(=O)[nH]3)CN(C(=O)[C@H](O)c3cccc(-c5cccc(C(C)(C)C)c5)c3)CCC4)CC2)c1 [55-6] |
| > 7.30 | > 8.00 | CC(C)c1cccc(-c2cccc([C@@H](O)C(=O)N3CCCc4nc(C5(c6cccs6)CC5)[nH]c(=O)c4C3)c2)c1 [53-3] |
| > 7.30 | – | CC(=O)c1cccc(C2(c3nc4c(c(=O)[nH]3)CN(C(=O)[C@H](O)c3cccc(C(F)(F)F)c3)CCC4)CC2)c1 [60-1, (R)-2-(1-(3-acetylphenyl)cyclopropyl)-6-(2-hydroxy-2-(3-(trifluoromethyl)phenyl)acetyl)-3,5,6,7,8,9-hexahydro-4H-pyrimido[5,4-c]azepin-4-one] |
| > 7.30 | > 8.52 | CC(C)c1cncc(C2(c3nc4c(c(=O)[nH]3)CN(C(=O)[C@H](O)c3cccc(-c5cccc(Cl)c5)c3)CCC4)CC2)c1 [55-8] |
| > 7.30 | > 8.00 | O=C(C(O)c1cncc(-c2cccc(Cl)c2)c1)N1CCc2nc(C3(c4ccccc4)CC3)[nH]c(=O)c2C1 (centres unmarked) [48-5] |
| > 7.30 | > 8.00 | O=C([C@H](O)c1cccc(-c2cccc(Cl)c2)c1)N1CCCc2nc(C3(c4cccc(Cl)c4)CC3)[nH]c(=O)c2C1 [50-14] |
| > 7.30 | > 8.00 | CN(Cc1ccc2ccccc2c1)C(=O)c1csc(C2(c3nc4c(c(=O)[nH]3)CN(C(=O)[C@H](O)c3cccc(C(F)(F)F)c3)CCC4)CC2)c1 [59-17] |
| > 7.30 | > 8.00 | O=C([C@H](O)c1cccc(-c2cccc(Cl)c2)c1)N1CCCc2nc(C3(c4cc(C5CCCCC5)cs4)CC3)[nH]c(=O)c2C1 [54-10] |
| > 7.30 | – | O=C([C@H](O)c1cccc(-c2cncc(C(F)(F)F)c2)c1)N1CCCc2nc(C3(c4ccccc4)CC3)[nH]c(=O)c2C1 [49-21] |
| > 7.30 | > 8.00 | O=C([C@H](O)c1cccc(-c2cccc(C(F)(F)F)c2)c1)N1CCCc2nc(C3(c4cncc(-c5ccccc5)c4)CC3)[nH]c(=O)c2C1 [56-5] |
| > 7.30 | > 8.00 | O=C([C@H](O)c1cccc(-c2ccc(F)c(Cl)c2)c1)N1CCCc2nc(C3(c4cccc(Cl)c4)CC3)[nH]c(=O)c2C1 [50-21] |
| > 7.30 | > 8.52 | O=C([C@H](O)c1cccc(-c2cc(F)cc(Cl)c2)c1)N1CCCc2nc(C3(c4ccccc4)CC3)[nH]c(=O)c2C1 [49-27] |
